Data on one molecule can be found in patent US20050176759A1, “7-sulfonyl-3-benzazepine derivatives as modulators of the dopamine receptor and their use for the treatment cns disorders” (priority 2001, published 2005).

The experiment has as its target T1, serotonin 5-HT6 receptor (Homo sapiens, UniProt P50406).
T1 construct: expressed in transfected cells
Kind of experiment: Binding experiments on cloned 5-HT6 receptors (procedures of WO 98/27081). From the text: Binding Experiments on Cloned […] Receptors
Compounds can be tested following the procedures outlined in WO 98/27081.

T1 sequence (P50406 whole entry): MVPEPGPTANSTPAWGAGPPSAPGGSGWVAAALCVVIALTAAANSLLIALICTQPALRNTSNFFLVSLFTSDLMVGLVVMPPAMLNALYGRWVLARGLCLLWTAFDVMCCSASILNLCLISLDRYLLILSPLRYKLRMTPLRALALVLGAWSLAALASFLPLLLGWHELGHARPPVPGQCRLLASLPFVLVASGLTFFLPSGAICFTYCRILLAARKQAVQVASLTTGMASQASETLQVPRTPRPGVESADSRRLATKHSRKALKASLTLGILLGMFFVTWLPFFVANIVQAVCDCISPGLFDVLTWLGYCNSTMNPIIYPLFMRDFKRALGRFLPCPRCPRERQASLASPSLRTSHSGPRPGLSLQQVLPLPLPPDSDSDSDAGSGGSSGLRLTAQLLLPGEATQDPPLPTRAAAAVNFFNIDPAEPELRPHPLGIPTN

As to `O=S(=O)(c1ccc2c(c1)CCNCC2)c1c[nH]c2ccccc12` [Example 43, 7-(3-(1H-indolyl)sulfonyl)-2,3,4,5-tetrahydro-1H-3-benzazepine], the Ki (in general, the dissociation constant of the complex between target and ligand, obtained from inhibition or displacement) was 100 to 1000 pM.
